The test system of data set [1] is Mus musculus. Kind of data set: Antitumor activity in C57BL/6J mouse model of spontaneous GI-tract tumor Apc-min assessed as reduction in total ileum polyp number at 30 to 300 mg/kg, po administered as suspension for 10 weeks. To be noted: dose 30-300 mg/kg. Type of data set: functional, organism-based.
Data set [2] in a line: Oral bioavailability in dog at 10 mg/kg measured up to 24 hrs by LC-MS analysis. The format is ADME, organism-based, Canis lupus familiaris. The conditions noted are these: in vivo.
In data set [3] the test system is Mus musculus. Kind of data set: Antitumor activity in C57BL/6J mouse model of spontaneous GI-tract tumor Apc-min assessed as mouse survival at 30 mg/kg, po administered daily as suspension and measured at day 82 by Kaplan-Meier method. Type of data set: functional.
A short description of data set [4]: Drug concentration in C57BL/6J mouse plasma at 10 mg/kg, po administered as cassette dose measured at 4 hrs by LC/MS/MS analysis. The format is ADME, organism-based.
Data set [5] deals with T1, Prostaglandin G/H synthase 2 (Homo sapiens, UniProt P35354).
T1 sequence (P35354 whole entry): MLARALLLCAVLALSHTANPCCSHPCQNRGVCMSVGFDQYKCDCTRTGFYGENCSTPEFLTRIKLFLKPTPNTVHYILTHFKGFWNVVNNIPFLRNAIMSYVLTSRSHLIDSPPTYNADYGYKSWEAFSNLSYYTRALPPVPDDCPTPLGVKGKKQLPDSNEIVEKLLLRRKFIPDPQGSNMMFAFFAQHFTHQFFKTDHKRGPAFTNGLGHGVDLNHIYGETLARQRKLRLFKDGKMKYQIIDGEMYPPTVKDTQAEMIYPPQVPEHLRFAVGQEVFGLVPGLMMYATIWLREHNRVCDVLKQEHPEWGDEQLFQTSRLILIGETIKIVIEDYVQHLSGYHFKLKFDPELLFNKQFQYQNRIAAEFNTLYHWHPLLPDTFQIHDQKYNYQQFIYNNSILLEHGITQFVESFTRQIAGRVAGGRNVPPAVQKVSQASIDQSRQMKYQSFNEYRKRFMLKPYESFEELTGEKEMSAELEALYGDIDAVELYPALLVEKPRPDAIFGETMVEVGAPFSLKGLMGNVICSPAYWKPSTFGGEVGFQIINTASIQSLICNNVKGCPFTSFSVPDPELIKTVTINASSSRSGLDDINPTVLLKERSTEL
Put plainly: Inhibition of COX2 in human whole blood assessed as reduction in LPS stimulated PGE2 production incubated for 1 hr by ELISA. Type of data set: tissue-based. Background: ELISA stands for enzyme-linked immunosorbent assay.

Data set [6] addresses T1, Prostaglandin G/H synthase 2. Put plainly: Inhibition of human recombinant COX-2 assessed as reduction in peroxidase activity using arachidonic acid as substrate preincubated for 60 mins followed by substrate addition for 2 secs by ADPH based fluorometric analysis.
A short description of data set [7]: Drug concentration in C57BL/6J mouse colon at 10 mg/kg, po administered as cassette dose measured at 4 hrs by LC/MS/MS analysis. The format is ADME, organism-based. The conditions noted are these: read-out: Ct.
The species entered for data set [8] is Homo sapiens. Put plainly: Selectivity ratio of IC50 for COX1 in human whole blood assessed as reduction in calcium ionophore-stimulated TXB2 production to IC50 for COX2 in human whole blood assessed as reduction in LPS stimulated PGE2 production. The format is tissue-based.
Data set [9] is described as follows: Drug concentration in C57BL/6J mouse portal vein plasma at 10 mg/kg, po administered as cassette dose measured at 4 hrs by LC/MS/MS analysis. Type of data set: ADME, organism-based.
Data set [10] in a line: Protein binding in human plasma assessed as unbound fraction. Type of data set: ADME, cell-free.
The nature of data set [11]: Half life in human liver microsomes. The format is ADME, Microsome. For orientation: Liver microsomes are a subcellular fraction often used to study metabolism.
For data set [12], the target named is T1, Prostaglandin G/H synthase 2. Put plainly: Inhibition of human recombinant COX-2 using arachidonic acid as substrate preincubated for 60 mins followed by substrate addition for 2 secs by ADPH based fluorometric analysis.

Active and inactive are the calls of the source. No cut-off for these calls is given here.

As for `CCCOc1nc(OCC(C)(C)O)c(-c2ccc(S(C)(=O)=O)cc2)cc1CO`, in data set [1], the outcome was Active. In addition, the bioavailability – broadly, the share of a dose that reaches the circulation, judged against a reference dose that is usually intravenous – in data set [2] is 79.5%. In addition, the Survival in data set [3] was greater than 82 days. The concentration at 4 h stood at 5.7 ng/mL in [4], 5340 ng/g in data set [7] and 98.6 ng/mL in data set [9]. In addition, the IC50 (commonly the concentration needed to halve the response being measured) in data set [5] stood at 2340 nM; in data set [6], 840 nM. Also, in data set [8], the Ratio IC50 is 80. For the same compound, in data set [10], the fraction unbound – broadly, the share of the substance not bound to proteins or other matrix – was 0.016. Also, in data set [11], the half-life (commonly how long it takes for the measured level to halve) is greater than 3.07 h. Besides, the Ki (as a rule, a dissociation constant, usually derived from enzyme kinetics or from competition with a known ligand) in [12] came out at 114 nM.

(Values after ChEMBL document CHEMBL4808216, “Gut-Restricted Selective Cyclooxygenase-2 (COX-2) Inhibitors for Chemoprevention of Colorectal Cancer” (J Med Chem, 2021).)
